Test system: human pancreatic lipase
Assay: lipase activity measured in control, normal and heparin-administered samples with each reagent (1,2-dioleoyl glycerol, UV method; Liquitech Lipase Color II for verification)
Type: biochemical
Set-up: lipase activity relative to (1) comparative example NaDCA (Table 1): concentration or dose not given beside the values
Settings: for lipase activity (Table 1): NaDCA pH 8.15, other bile salts pH 7.0; for lipase activity relative to (1) comparative example NaDCA (Table 1): pH 7.0
Description: A mixture of the substrate stock solution and the R-1 in a proportion of 1:2 was used as a first reagent. The R-2 was directly used as a second reagent. As a sample, pooled serum or a control sample (a control containing a pancreatic lipase) was used. A proportion in amount among the sample, the first reagent and the second reagent was set as sample:first reagent:second reagent of 0.01 ml:0.18 ml:0.06 ml. The sample was added to the first reagent, the resultant mixture was heated at 37° C. for 5 minutes, the second reagent was added thereto, and a change rate of an absorbance at 340 nm based on reduced NADP was obtained at 37° C. from 3 minutes after the addition of the second reagent to 4 minutes after the addition, and then, the lipase activity was calculated by using a molecular extinction coefficient of 6300 L/mol·cm of the reduced NADP. Besides, as a sample blank, saline was used instead of a sample, an absorbance was measured by using the reagent for sample blank obtained by removing MGLPII from the second reagent, and a difference between the thus measured two values was defined as an enzyme activity value. For the measurement, Hitachi automatic analyzer Model H7170 or H7080 was used.
Similarly to Example 1, a mixture of the substrate stock solution and the R-1 in a proportion of 1:2 was used as a first reagent. Except for this, the measurement was performed in the same manner as in Example 1.
A commercially available reagent for a resorufin colorimetric method, “Liquitech Lipase Color II” manufactured by Roche Diagnostics using 1,2-O-dilauryl-rac-glycerol-3-glutaric acid-(6-methylresorufin)ester (DGGR), which is regarded not to be influenced by a non-pancreatic lipase, such as a lipoprotein lipase or a hepatic lipase, appearing in blood due to administration of heparin, was used for verifying the effect of the present example. “Liquitech Lipase Color II” was used in accordance with the package insert, and a special calibrator was used for calculating the enzyme activity. […] The concentration of each bile acid used in the present example was set to be the same as that in the comparative example.
As samples, a control, non-heparin-administered samples (normal samples), and heparin-administered samples were used.
The compositions of the reagents were the same as those of Example 2. As a comparative example, NaDCA (in a concentration of 40 mmol/L in the R-1) was used as the bile acid, and the reaction solution was adjusted to pH 8.15 (by the Bicine buffer) for measuring a heparin-administered sample.
It is noted that CRM-001b containing a human pancreatic recombinant lipase dissolved not in distilled water but in a pooled serum was used as the calibrator to calculate the lipase activity.
As a bile acid of the present example and a reference example, NaTDCA was selected, and the pH dependence with the pH of a reaction solution changed in a range of 6.2 to 7.6 was examined. It is noted that a case of pH 7.6 was used as the reference example. An MES buffer was used for adjusting pH to 6.2 and 6.4, and the BES buffer was used for adjusting the other pHs. As samples, (six) control samples (controls each containing a pancreatic lipase) and (nine) heparin-administered samples were used. As a comparative example, NaDCA (in a concentration of 40 mmol/L in the R-1) was used as the bile acid, and a reaction solution having pH 8.15 (the Bicine buffer) was used. Besides, “Liquitech Lipase Color II” manufactured by Roche Diagnostics was used for verifying the effect of the present example.

lipase activity (Table 1) (Normal sample 1): 43.4 U/L
lipase activity relative to (1) comparative example NaDCA (Table 1) (Normal sample 1): 111.1%
lipase activity (Table 1) (Normal sample 2): 96.4 U/L
lipase activity relative to (1) comparative example NaDCA (Table 1) (Normal sample 2): 101.4%
lipase activity (Table 1) (Normal sample 3): 50.7 U/L
lipase activity relative to (1) comparative example NaDCA (Table 1) (Normal sample 3): 108.7%
lipase activity (Table 1) (Normal sample 4): 44.5 U/L
lipase activity relative to (1) comparative example NaDCA (Table 1) (Normal sample 4): 102.3%
lipase activity (Table 1) (Normal sample 5): 31.7 U/L
lipase activity relative to (1) comparative example NaDCA (Table 1) (Normal sample 5): 77.8%
lipase activity (Table 1) (sample Heparin 1): 30.1 U/L
lipase activity relative to (1) comparative example NaDCA (Table 1) (sample Heparin 1): 39.2%
lipase activity (Table 1) (sample Heparin 2): 44.2 U/L
lipase activity relative to (1) comparative example NaDCA (Table 1) (sample Heparin 2): 50.9%
lipase activity (Table 1) (sample Heparin 3): 37.9 U/L
lipase activity relative to (1) comparative example NaDCA (Table 1) (sample Heparin 3): 33.6%
lipase activity (Table 1) (sample Heparin 4): 28.9 U/L
lipase activity relative to (1) comparative example NaDCA (Table 1) (sample Heparin 4): 28.5%
lipase activity (Table 1) (sample Heparin 5): 30.1 U/L
lipase activity relative to (1) comparative example NaDCA (Table 1) (sample Heparin 5): 44.0%
lipase activity (Table 1) (sample Heparin 6): 30.1 U/L
lipase activity relative to (1) comparative example NaDCA (Table 1) (sample Heparin 6): 43.4%
lipase activity (Table 1) (sample Heparin 7): 50.4 U/L
lipase activity relative to (1) comparative example NaDCA (Table 1) (sample Heparin 7): 36.4%
lipase activity (Table 1) (sample Heparin 8): 54.7 U/L
lipase activity relative to (1) comparative example NaDCA (Table 1) (sample Heparin 8): 43.4%
lipase activity (Table 1) (sample Heparin 9): 82.4 U/L
lipase activity relative to (1) comparative example NaDCA (Table 1) (sample Heparin 9): 48.8%
lipase activity (Table 3) (sample Heparin 21, pH 6.2): 35.9 U/L
lipase activity (Table 3) (sample Heparin 21, pH 6.4): 37.9 U/L
lipase activity (Table 3) (sample Heparin 21, pH 6.6): 40.9 U/L
lipase activity (Table 3) (sample Heparin 21, pH 6.9): 48.6 U/L
lipase activity (Table 3) (sample Heparin 21, pH 7.2): 47.6 U/L
lipase activity (Table 3) (sample Heparin 21, pH 7.4): 44.5 U/L
lipase activity (Table 3) (sample Heparin 21, pH 7.6): 34.7 U/L
lipase activity (Table 3) (sample Heparin 22, pH 6.2): 39.7 U/L
lipase activity (Table 3) (sample Heparin 22, pH 6.4): 41.7 U/L
lipase activity (Table 3) (sample Heparin 22, pH 6.6): 45.5 U/L
lipase activity (Table 3) (sample Heparin 22, pH 6.9): 53.6 U/L
lipase activity (Table 3) (sample Heparin 22, pH 7.2): 52.6 U/L
lipase activity (Table 3) (sample Heparin 22, pH 7.4): 49.2 U/L
lipase activity (Table 3) (sample Heparin 22, pH 7.6): 38.3 U/L
lipase activity (Table 3) (sample Heparin 23, pH 6.2): 61.0 U/L
lipase activity (Table 3) (sample Heparin 23, pH 6.4): 63.0 U/L
lipase activity (Table 3) (sample Heparin 23, pH 6.6): 71.4 U/L
lipase activity (Table 3) (sample Heparin 23, pH 6.9): 81.7 U/L
lipase activity (Table 3) (sample Heparin 23, pH 7.2): 80.5 U/L
lipase activity (Table 3) (sample Heparin 23, pH 7.4): 75.8 U/L
lipase activity (Table 3) (sample Heparin 23, pH 7.6): 58.6 U/L
lipase activity (Table 3) (sample Heparin 24, pH 6.2): 44.9 U/L
lipase activity (Table 3) (sample Heparin 24, pH 6.4): 46.9 U/L
lipase activity (Table 3) (sample Heparin 24, pH 6.6): 51.8 U/L
lipase activity (Table 3) (sample Heparin 24, pH 6.9): 60.4 U/L
lipase activity (Table 3) (sample Heparin 24, pH 7.2): 59.4 U/L
lipase activity (Table 3) (sample Heparin 24, pH 7.4): 55.7 U/L
lipase activity (Table 3) (sample Heparin 24, pH 7.6): 43.2 U/L
lipase activity (Table 3) (sample Heparin 25, pH 6.2): 38.0 U/L
lipase activity (Table 3) (sample Heparin 25, pH 6.4): 40.0 U/L
lipase activity (Table 3) (sample Heparin 25, pH 6.6): 43.5 U/L
lipase activity (Table 3) (sample Heparin 25, pH 6.9): 51.4 U/L
lipase activity (Table 3) (sample Heparin 25, pH 7.2): 50.4 U/L
lipase activity (Table 3) (sample Heparin 25, pH 7.4): 47.1 U/L
lipase activity (Table 3) (sample Heparin 25, pH 7.6): 36.7 U/L
lipase activity (Table 1) (sample PRECINORM): 52.1 U/L
lipase activity (Table 3) (sample PRECINORM, pH 6.2): 46.8 U/L
lipase activity (Table 3) (sample PRECINORM, pH 6.4): 50.0 U/L
lipase activity (Table 3) (sample PRECINORM, pH 6.6): 52.6 U/L
lipase activity (Table 3) (sample PRECINORM, pH 6.9): 67.1 U/L
lipase activity relative to (1) comparative example NaDCA (Table 1) (sample PRECINORM): 102.1%
lipase activity (Table 3) (sample PRECINORM, pH 7.2): 59.5 U/L
lipase activity (Table 3) (sample PRECINORM, pH 7.4): 57.1 U/L
lipase activity (Table 3) (sample PRECINORM, pH 7.6): 52.0 U/L
lipase activity (Table 1) (sample PRECIPATH): 134.6 U/L
lipase activity (Table 3) (sample PRECIPATH, pH 6.2): 110.7 U/L
lipase activity (Table 3) (sample PRECIPATH, pH 6.4): 109.5 U/L
lipase activity (Table 3) (sample PRECIPATH, pH 6.6): 140.3 U/L
lipase activity (Table 3) (sample PRECIPATH, pH 6.9): 157.3 U/L
lipase activity relative to (1) comparative example NaDCA (Table 1) (sample PRECIPATH): 105.2%
lipase activity (Table 3) (sample PRECIPATH, pH 7.2): 159.2 U/L
lipase activity (Table 3) (sample PRECIPATH, pH 7.4): 152.7 U/L
lipase activity (Table 3) (sample PRECIPATH, pH 7.6): 110.7 U/L
lipase activity (Table 3) (sample Pool 1, pH 6.2): 42.1 U/L
lipase activity (Table 3) (sample Pool 1, pH 6.4): 44.6 U/L
lipase activity (Table 3) (sample Pool 1, pH 6.6): 45.2 U/L
lipase activity (Table 3) (sample Pool 1, pH 6.9): 53.0 U/L
lipase activity (Table 3) (sample Pool 1, pH 7.2): 52.4 U/L
lipase activity (Table 3) (sample Pool 1, pH 7.4): 45.4 U/L
lipase activity (Table 3) (sample Pool 1, pH 7.6): 39.1 U/L
lipase activity (Table 3) (sample Pool 2, pH 6.2): 22.8 U/L
lipase activity (Table 3) (sample Pool 2, pH 6.4): 24.8 U/L
lipase activity (Table 3) (sample Pool 2, pH 6.6): 23.6 U/L
lipase activity (Table 3) (sample Pool 2, pH 6.9): 28.0 U/L
lipase activity (Table 3) (sample Pool 2, pH 7.2): 28.2 U/L
lipase activity (Table 3) (sample Pool 2, pH 7.4): 27.0 U/L
lipase activity (Table 3) (sample Pool 2, pH 7.6): 18.3 U/L
lipase activity (Table 3) (sample Seraclear, pH 6.2): 23.7 U/L
lipase activity (Table 3) (sample Seraclear, pH 6.4): 25.4 U/L
lipase activity (Table 3) (sample Seraclear, pH 6.6): 28.6 U/L
lipase activity (Table 3) (sample Seraclear, pH 6.9): 31.7 U/L
lipase activity (Table 3) (sample Seraclear, pH 7.2): 33.8 U/L
lipase activity (Table 3) (sample Seraclear, pH 7.4): 31.4 U/L
lipase activity (Table 3) (sample Seraclear, pH 7.6): 20.2 U/L
SMILES: C[C@H](CCC(=O)NCCS(=O)(=O)[O-])[C@H]1CC[C@H]2[C@@H]3CC[C@@H]4C[C@H](O)CC[C@]4(C)[C@H]3C[C@H](O)[C@]12C.[Na+] [NaTDCA, sodium taurodeoxycholate]
